Measured values taken from patent publication US11738031B2, “Compositions and methods for preventing or treating muscle conditions” (The Board of Trustees of the Leland Stanford Junior …, priority 2017, dated 2023).
“Also recorded” adds a separate entry of the source.

What was measured:
[1] = tested on: muscle stem cells (MuSCs); assay: MuSC proliferation in culture, cell number count (hemocytometer); assay type: cell-based, mouse; settings: ONO-AE3-208 1 μM with PGE2 10 ng/ml, 24 hr treatment
Description: (§1) Muscle stem cell culture, treatment and lentiviral infection: Following isolation, we resuspended MuSCs in myogenic cell culture medium containing DMEM/F10 (50:50), 15% FBS, 2.5 ng ml^−1 fibroblast growth factor-2 (FGF-2 also known as bFGF) and 1% penicillin-streptomycin. We seeded MuSC suspensions at a density of 500 cells per cm^2 surface area. We maintained cell cultures at 37° C. in 5% CO2 and changed medium daily. For PGE2, 15-PGDH inhibitor and EP4 receptor antagonist treatment studies, we added 1-200 ng/ml Prostaglandin E2 (Cayman Chemical) (unless specified in the figure legends, 10 ng/ml was the standard concentration used), and/or 1 μM EP4 antagonist (ONO-AE3-208, Cayman Chemical), or 1 μM 15-PGDH inhibitor (SW033291, Cayman Chemical) to the MuSCs cultured on collagen coated dishes for the first 24 h. The cells were then trypsinized and cells reseeded onto hydrogels for an additional 6 days of culture. All treatments were compared to their solvent (DMSO) vehicle control. For stripped serum assays, we resuspended isolated MuSCs in medium containing DMEM/F10 (50:50), 15% charcoal stripped FBS (Gibco, cat #12676011), 2.5 ng ml^−1 bFGF and 1% penicillin-streptomycin. […]
Proliferation assays: To assay proliferation, we used three different assays (hemocytometer, VisionBlue, and EdU). […] For hemocytometer cell number count, we collected cells at indicated timepoints by incubation with 0.5% trypsin in PBS for 5 min at 37° C. and quantified them using a hemocytometer at least 3 times. Additionally, we used the VisionBlue Quick Cell Viability Fluorometric Assay Kit (BioVision, catalog #K303) as a readout for cell growth in culture. Briefly, we incubated MuSCs with 10% VisionBlue in culture medium for 3 h, and measured fluorescence intensity on a fluorescence plate reader (Infinite M1000 PRO, Tecan) at Ex=530-570 nm, Em=590-620 nm. […] We quantified EdU positive cells using the MetaMorph Image Analysis software (Molecular Devices). Data analyses were blinded, where researchers performing cell scoring were unaware of the treatment condition given to sample groups analyzed. […]

aged MuSCs = assay: Aged MuSC proliferation in culture; assay type: cell-based, mouse; settings: PGE2 10 ng/ml or SW033291 1 μM, 24 hr, assayed at day 7
Description: as §1
Proliferation assays: To assay proliferation, we used three different assays (hemocytometer, VisionBlue, and EdU). […] For hemocytometer cell number count, we collected cells at indicated timepoints by incubation with 0.5% trypsin in PBS for 5 min at 37° C. and quantified them using a hemocytometer at least 3 times. Additionally, we used the VisionBlue Quick Cell Viability Fluorometric Assay Kit (BioVision, catalog #K303) as a readout for cell growth in culture. Briefly, we incubated MuSCs with 10% VisionBlue in culture medium for 3 h, and measured fluorescence intensity on a fluorescence plate reader (Infinite M1000 PRO, Tecan) at Ex=530-570 nm, Em=590-620 nm. […] We quantified EdU positive cells using the MetaMorph Image Analysis software (Molecular Devices). Data analyses were blinded, where researchers performing cell scoring were unaware of the treatment condition given to sample groups analyzed.

[2] = tested on: endogenous MuSCs in TA muscle; assay: Endogenous MuSC BLI in Pax7CreERT2;Rosa26-LSL-Luc mice after cardiotoxin injury; assay type: in vivo, mouse; settings: single indomethacin injection three days post-cardiotoxin injury
Description: Bioluminescence imaging: We performed bioluminescence imaging (BLI) using a Xenogen-100 system, as previously described^1,5,6. Briefly, we anesthetized mice using isofluorane inhalation and administered 120 μL D-luciferin (0.1 mmol kg^−1, reconstituted in PBS; Caliper LifeSciences) by intraperitoneal injection. We acquired BLI using a 60 s exposure at F-stop=1.0 at 5 minutes after luciferin injection. Digital images were recorded and analyzed using Living Image software (Caliper LifeSciences). We analyzed images with a consistent region-of-interest (ROI) placed over each hindlimb to calculate a bioluminescence signal. We calculated a bioluminescence signal in radiance (p s^−1 cm^−2 sr^−1) value of 10^4 to define an engraftment threshold. This radiance threshold of 10^4 is approximately equivalent to the total flux threshold in p/s reported previously. This BLI threshold corresponds to the histological detection of one or more GFP+ myofibers^1,5,6. We performed BLI imaging every week after transplantation. […]
We performed bioluminescence imaging (BLI) using a Xenogen-100 system, as previously described (24, 26, 27, 30). […] Digital images were recorded and analyzed using Living Image software (Caliper LifeSciences). We analyzed images with a consistent region-of-interest (ROI) placed over each hindlimb to calculate a bioluminescence signal. We calculated a bioluminescence signal in radiance (p s^−1 cm^−2 sr^−1) value of 10^4 to define an engraftment threshold. […]
Bioluminescent Imaging: For bioluminescence imaging (BLI), we anesthetized mice using isofluorane inhalation and administered 120 μL D-luciferin (0.1 mmol kg^−1, reconstituted in PBS; Caliper LifeSciences) by intraperitoneal injection. […] Digital images were recorded and analyzed using Living Image software (Caliper LifeSciences). We analyzed images with a consistent region-of-interest (ROI) placed over each hindlimb to calculate a bioluminescence signal. We calculated a bioluminescence signal in radiance (p s^−1 cm^−2 sr^−1) value of 10^4 to define an engraftment threshold. […]

TA muscle = assay: In vivo muscle force at day 14 post-injury (TA); design: species or system mouse
Description: We used an injury model entailing intramuscular injection of 10 μl of notexin (10 μg ml^−1; Latoxan, catalog #L8104) or cardiotoxin (10 μM; Latoxan, catalog #L8102) into the Tibialis anterior (TA) muscle. For cryoinjury, an incision was made in the skin overlying the TA muscle and a copper probe, chilled in liquid nitrogen, was applied to the TA muscle for three 10 s intervals, allowing the muscle to thaw between each application of the cryoprobe. When indicated, 48 hr after injury either 16,16-Dimethyl Prostaglandin E2 (dmPGE2) (13 nmol, Tocris, catalog #4027), Indomethacin (35 μg, Sigma, catalog #17378) or vehicle control (PBS) was injected into the TA muscle. The contralateral TA was used as an internal control, except for the force measurement experiments where each mouse had both legs injured with the same condition and independent mice were used for each condition.
Mice were injured as described in the Muscle injury section. […] Data were collected with a PCI-6251 acquisition card (National Instruments) and analyzed in Matlab. We calculated specific force values by normalizing the force measurements by the muscle physiological cross-sectional areas (PCSAs), which were similar between groups. PCSA (measured in mm^2) was calculated according to the following equation (55): PCSA (mm^2)=[mass (g)×Cos θ]÷[ρ (g/mm^3)×fiber length (mm)], […]

[3] = tested on: PGE2 levels of conditioned medium from isolated fibers; assay: PGE2 ELISA of conditioned medium from isolated fibers; assay type: cell-based, mouse; settings: indomethacin 1 μM, 24 hours
Description: For conditioned medium assays, muscle fibers from the extensor digitorum longus (EDL) were isolated as previously described (53). Fibers were cultured in stripped serum medium in the presence or absence of indomethacin (1 μM, Sigma) for 24 hours. Conditioned medium was collected and measured using the PGE2 ELISA Kit (R&D Systems, catalog #KGE004B) and expressed relative to the collected volume (ml). Each sample was assayed in triplicate and in two independent experiments. […]

Q: CC(C(=O)Nc1cc(C#N)ccc1CCCC(=O)O)c1ccc(F)c2ccccc12 (stereo not drawn) [ONO-AE3-208] was tested. Which “proliferation induced by PGE2 in the presence of EP4 antagonist” value [1] did it give?
A: blunted

Q: For CCCC[S+]([O-])c1sc2nc(-c3cccs3)cc(-c3ccccc3)c2c1N (stereo not drawn) [SW033291], which “aged MuSC proliferation and Pax7 expression after 1-day pulse” value (aged MuSCs) is on record?
A: characteristic increase in proliferation and maintenance of Pax7 expression

Q: How did the “luciferase activity (BLI) of endogenous MuSCs after indomethacin” value [2] turn out when COc1ccc2c(c1)c(CC(=O)O)c(C)n2C(=O)c1ccc(Cl)cc1 [indomethacin] was run?
A: significant decrease in luciferase activity; also recorded: decline in BLI relative to controls

Q: And the “reduction in twitch force compared to controls” value (TA muscle; NSAID (indomethacin) treatment, day 14 post-cardiotoxin)?
A: 33±7%

Q: And the “Twitch force vs control group” value (TA muscle; indomethacin into cardiotoxin-injured muscles, day 14 post-injury)?
A: significant loss in Twitch force

Q: And the “PGE2 synthesis by isolated myofibers” value [3]?
A: markedly reduced
